# In EP4562004B1, “NOVEL 7-SUBSTITUTED INDOLE SULFONAMIDE DERIVATIVES” (F. Hoffmann-La Roche AG, priority 2022, dated 2024):
# pIC50: −log10 of the molar value.
# Target: human GPR17 short isoform (Homo sapiens, UniProt Q13304)
# Assay: GPR17 cAMP assay (antagonist mode, TR-FRET cAMP detection)
# Format: cell-based
# Conditions: CHO-K1 cells stably expressing human GPR17 short isoform; with EC80 concentration of agonist MDL29,951, IBMX 0.5mM, forskolin 15µM; normalized to reference antagonist; read-out: hGPR17 cAMP IC50
# Method: CHO-K1 cells stably expressing vector containing untagged human GPR17 short isoform (Roche) were cultured at 37°C / 5% CO2 in DMEM (Dulbecco's Modified Eagle Medium):F-12 (1:1) supplemented with 10% foetal bovine serum and 400 µg/ml Geneticin.
# Changes in intracellular cyclic adenosine monophosphate (cAMP) levels were quantified using the Nano-TRF Detection Assay kit (Roche Diagnostics, Cat. No. 05214386001). This assay allows for direct cAMP quantification in a homogeneous solution. cAMP is detected based on time-resolved fluorescence energy transfer (TR-FRET) and competitive binding of ruthenylated cAMP and endogenous cAMP to an anti-cAMP monoclonal antibody labeled with AlexaFluor-700. The Ruthenium complex serves as the FRET donor and transfers energy to AlexaFluor-700. The FRET signal is inversely proportional to the cAMP concentration.
# CHO-GPR17S cells were detached with Accutase and resuspended in assay buffer consisting of Hank's Balanced Salt Solution (HBSS), 10mM HEPES (4-(2-hydroxyethyl) piperazine-1-ethanesulfonic acid solution) and 0.1% bovine serum albumin (pH 7.4). The cells were seeded in black 384-well plates (Corning) at a density of 10'000 cells / 20µl assay buffer until the addition of compounds.
# Test antagonist compounds were serially diluted in dimethyl sulfoxide (DMSO) and spotted in 384-well plates. The compounds were then diluted in HBSS buffer supplemented with an EC80 concentration of MDL29,951 (3-(2-Carboxy-4,6-dichloroindol-3-yl)propionic acid) (GPR17 agonist) plus 3-Isobutyl-1-methylxanthine (IBMX) (0.5mM final concentration) and added to the cells at room temperature. Forskolin (15µM final concentration) was added 5 minutes after the test compounds and the cells were incubated at room temperature for 30 minutes. The assay was stopped by adding cAMP detection mix (containing detergents for cell lysis) for 90 minutes at room temperature.
# Cellular cAMP was measured using a Paradigm reader (Molecular Devices). The raw data was used to calculate the FRET signal based on the assay's P-factor as per cAMP kit instructions. The data was normalized to the maximal activity of a reference antagonist and dose response curves were fitted to the percent activity of the test compounds using a sigmoidal dose response model (Genedata Screener).
# Results in the hGPR17 cAMP assay are provided for compounds of formula I in Table 1 Table 1: […]
# Sequence of human GPR17 short isoform (Q13304 29-367): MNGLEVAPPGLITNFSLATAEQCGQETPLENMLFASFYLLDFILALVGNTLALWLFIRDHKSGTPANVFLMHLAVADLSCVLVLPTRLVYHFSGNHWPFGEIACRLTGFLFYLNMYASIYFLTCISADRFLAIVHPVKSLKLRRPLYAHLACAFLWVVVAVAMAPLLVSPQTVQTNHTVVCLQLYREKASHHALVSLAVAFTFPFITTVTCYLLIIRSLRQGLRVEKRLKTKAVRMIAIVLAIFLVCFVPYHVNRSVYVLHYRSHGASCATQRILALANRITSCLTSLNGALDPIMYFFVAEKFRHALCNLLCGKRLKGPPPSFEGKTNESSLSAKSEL
row,Structure (SMILES),pIC50
1,"COc1nc(NS(=O)(=O)c2c[nH]c3c(-n4nccn4)c(Br)ccc23)nc(OC)c1OCC(F)F [Example 30, 6-bromo-N-[5-(2,2-difluoroethoxy)-4,6-dimethoxy-pyrimidin-2-yl]-7-(triazol-2-yl)-1H-indole-3-sulfonamide]",7.64
2,"COc1nc(NS(=O)(=O)c2c[nH]c3c(-n4nccn4)c(Br)ccc23)nc(OC)c1C1CC1C#N (stereo not drawn) [Example 31, 6-bromo-N-[5-(2-cyanocyclopropyl)-4,6-dimethoxy-pyrimidin-2-yl]-7-(triazol-2-yl)-1H-indole-3-sulfonamide]",7.52
3,"COc1nc(NS(=O)(=O)c2c[nH]c3c(-n4nccn4)c(F)ccc23)nc(OC)c1CC(F)F [Example 32, N-[5-(2,2-difluoroethyl)-4,6-dimethoxy-pyrimidin-2-yl]-6-fluoro-7-(triazol-2-yl)-1H-indole-3-sulfonamide]",7.16
4,"COc1nc(NS(=O)(=O)c2c[nH]c3c(-n4nccn4)c(F)ccc23)nc(OC)c1OCCF [Example 33, 6-fluoro-N-[5-(2-fluoroethoxy)-4,6-dimethoxy-pyrimidin-2-yl]-7-(triazol-2-yl)-1H-indole-3-sulfonamide]",6.85
5,"COc1nc(NS(=O)(=O)c2c[nH]c3c(-n4nccn4)c(F)ccc23)nc(OC)c1OC(F)F [Example 34, N-[5-(difluoromethoxy)-4,6-dimethoxy-pyrimidin-2-yl]-6-fluoro-7-(triazol-2-yl)-1H-indole-3-sulfonamide]",6.65
6,"COc1nc(NS(=O)(=O)c2c[nH]c3c(-n4nccn4)c(F)ccc23)nc(OC)c1OCC(F)F [Example 35, N-[5-(2,2-difluoroethoxy)-4,6-dimethoxy-pyrimidin-2-yl]-6-fluoro-7-(triazol-2-yl)-1H-indole-3-sulfonamide]",6.90
7,"COc1nc(NS(=O)(=O)c2c[nH]c3c(-n4nccn4)c(F)ccc23)nc(OC)c1C1CC1C#N (stereo not drawn) [Example 36, N-[5-(2-cyanocyclopropyl)-4,6-dimethoxy-pyrimidin-2-yl]-6-fluoro-7-(triazol-2-yl)-1H-indole-3-sulfonamide]",7.09
8,"COc1nc(NS(=O)(=O)c2c[nH]c3c(-n4cncn4)c(Cl)ccc23)nc(OC)c1CC(F)F [Example 37, 6-chloro-N-[5-(2,2-difluoroethyl)-4,6-dimethoxy-pyrimidin-2-yl]-7-(1,2,4-triazol-1-yl)-1H-indole-3-sulfonamide]",7.22
9,"COc1nc(NS(=O)(=O)c2c[nH]c3c(-n4ncc(C)n4)c(Cl)ccc23)nc(OC)c1OCC(F)F [Example 38, 6-chloro-N-[5-(2,2-difluoroethoxy)-4,6-dimethoxy-pyrimidin-2-yl]-7-(4-methyltriazol-2-yl)-1H-indole-3-sulfonamide]",7.47
10,"COc1nc(NS(=O)(=O)c2c[nH]c3c(-n4ncc(C)n4)c(Cl)ccc23)nc(OC)c1OCCF [Example 39, 6-chloro-N-[5-(2-fluoroethoxy)-4,6-dimethoxy-pyrimidin-2-yl]-7-(4-methyltriazol-2-yl)-1H-indole-3-sulfonamide]",7.26
11,"COc1nc(NS(=O)(=O)c2c[nH]c3c(-n4ccnn4)c(Cl)ccc23)nc(OC)c1CC(F)F [Example 40, 6-chloro-N-[5-(2,2-difluoroethyl)-4,6-dimethoxy-pyrimidin-2-yl]-7-(triazol-1-yl)-1H-indole-3-sulfonamide]",7.40
12,"COc1nc(NS(=O)(=O)c2c[nH]c3c(-n4nccn4)c(C(F)F)ccc23)nc(OC)c1OCCF [Example 41, 6-(difluoromethyl)-N-[5-(2-fluoroethoxy)-4,6-dimethoxy-pyrimidin-2-yl]-7-(triazol-2-yl)-1H-indole-3-sulfonamide]",7.19
13,"COc1nc(NS(=O)(=O)c2c[nH]c3c(-n4nccn4)c(C(F)F)ccc23)nc(OC)c1CC(F)F [Example 42, N-[5-(2,2-difluoroethyl)-4,6-dimethoxy-pyrimidin-2-yl]-6-(difluoromethyl)-7-(triazol-2-yl)-1H-indole-3-sulfonamide]",7.30
14,"COc1nc(NS(=O)(=O)c2c[nH]c3c(-n4cc(C)cn4)c(Cl)ccc23)nc(OC)c1OCC(F)F [Example 43, 6-chloro-N-[5-(2,2-difluoroethoxy)-4,6-dimethoxy-pyrimidin-2-yl]-7-(4-methylpyrazol-1-yl)-1H-indole-3-sulfonamide]",7.54
15,"COc1nc(NS(=O)(=O)c2c[nH]c3c(-n4ccc(C)n4)c(Cl)ccc23)nc(OC)c1OCC(F)F [Example 44, 6-chloro-N-[5-(2,2-difluoroethoxy)-4,6-dimethoxy-pyrimidin-2-yl]-7-(3-methylpyrazol-1-yl)-1H-indole-3-sulfonamide]",7.64
16,"COc1nc(NS(=O)(=O)c2c[nH]c3c(-n4cc(F)cn4)c(Cl)ccc23)nc(OC)c1OCC(F)F [Example 45, 6-chloro-N-[5-(2,2-difluoroethoxy)-4,6-dimethoxy-pyrimidin-2-yl]-7-(4-fluoropyrazol-1-yl)-1H-indole-3-sulfonamide]",7.60
17,"COc1nc(NS(=O)(=O)c2c[nH]c3c(-n4nccc4C)c(Cl)ccc23)nc(OC)c1OCC(F)F [Example 46, 6-chloro-N-[5-(2,2-difluoroethoxy)-4,6-dimethoxy-pyrimidin-2-yl]-7-(5-methylpyrazol-1-yl)-1H-indole-3-sulfonamide]",7.35
18,"COc1nc(NS(=O)(=O)c2c[nH]c3c(-n4cc(F)cn4)c(Cl)ccc23)nc(OC)c1OCCF [Example 47, 6-chloro-N-[5-(2-fluoroethoxy)-4,6-dimethoxy-pyrimidin-2-yl]-7-(4-fluoropyrazol-1-yl)-1H-indole-3-sulfonamide]",7.59
19,"COc1nc(NS(=O)(=O)c2c[nH]c3c(-n4cc(F)cn4)c(Cl)ccc23)nc(OC)c1OC(F)F [Example 48, 6-chloro-N-[5-(difluoromethoxy)-4,6-dimethoxy-pyrimidin-2-yl]-7-(4-fluoropyrazol-1-yl)-1H-indole-3-sulfonamide]",7.16
20,"COc1nc(NS(=O)(=O)c2c[nH]c3c(-n4cccn4)c(C(F)F)ccc23)nc(OC)c1OC(F)F [Example 49, N-[5-(difluoromethoxy)-4,6-dimethoxy-pyrimidin-2-yl]-6-(difluoromethyl)-7-pyrazol-1-yl-1H-indole-3-sulfonamide]",6.97
21,"COc1nc(NS(=O)(=O)c2c[nH]c3c(-n4cccn4)c(C(F)F)ccc23)nc(OC)c1OCC(F)F [Example 50, N-[5-(2,2-difluoroethoxy)-4,6-dimethoxy-pyrimidin-2-yl]-6-(difluoromethyl)-7-pyrazol-1-yl-1H-indole-3-sulfonamide]",7.19
22,"COc1nc(NS(=O)(=O)c2c[nH]c3c(-n4cccn4)c(C(F)F)ccc23)nc(OC)c1OCCF [Example 51, 6-(difluoromethyl)-N-[5-(2-fluoroethoxy)-4,6-dimethoxy-pyrimidin-2-yl]-7-pyrazol-1-yl-1H-indole-3-sulfonamide]",7.03
23,"COc1nc(NS(=O)(=O)c2c[nH]c3c(-n4cccn4)c(C(F)F)ccc23)nc(OC)c1CC(F)F [Example 52, N-[5-(2,2-difluoroethyl)-4,6-dimethoxy-pyrimidin-2-yl]-6-(difluoromethyl)-7-pyrazol-1-yl-1H-indole-3-sulfonamide]",7.17
24,"COc1nc(NS(=O)(=O)c2c[nH]c3c(-n4ccc(F)n4)c(Cl)ccc23)nc(OC)c1OCC(F)F [Example 53, 6-chloro-N-[5-(2,2-difluoroethoxy)-4,6-dimethoxy-pyrimidin-2-yl]-7-(3-fluoropyrazol-1-yl)-1H-indole-3-sulfonamide]",7.60
